# Measurements reported in BindingDB's records for doi:10.1021/bi990204w (National Institute of Diabetes and Digestive and Kidney …, 1999).
# Several values for one entry are separate records, joined by “and”; a condition that tells them apart may be missing. Equal values may be shown once. Where a SMILES comes first, the peptide text is derived from it. Bridges are numbered along the chain shown (N, C = ends). [ ]: non-standard residue; d: D form. The star is where a group is joined. X1 = CC(C)C[C@@H](CN[C@@H](CC(C)C)C(N)=O)N*; 2Nal = N[C@@H](Cc1ccc2ccccc2c1)C(=O)O; d2Nal = N[C@H](Cc1ccc2ccccc2c1)C(=O)O; pGlu = O=C1CC[C@@H](C(=O)O)N1; Nle = CCCC[C@H](N)C(=O)O; βAla = NCCC(=O)O
# Tests used:
# [1] = biological target: Gastrin-releasing peptide receptor (Mus musculus, UniProt P21729)
# Gastrin-releasing peptide receptor (Mus musculus, UniProt P21729), sequence (P21729 whole entry): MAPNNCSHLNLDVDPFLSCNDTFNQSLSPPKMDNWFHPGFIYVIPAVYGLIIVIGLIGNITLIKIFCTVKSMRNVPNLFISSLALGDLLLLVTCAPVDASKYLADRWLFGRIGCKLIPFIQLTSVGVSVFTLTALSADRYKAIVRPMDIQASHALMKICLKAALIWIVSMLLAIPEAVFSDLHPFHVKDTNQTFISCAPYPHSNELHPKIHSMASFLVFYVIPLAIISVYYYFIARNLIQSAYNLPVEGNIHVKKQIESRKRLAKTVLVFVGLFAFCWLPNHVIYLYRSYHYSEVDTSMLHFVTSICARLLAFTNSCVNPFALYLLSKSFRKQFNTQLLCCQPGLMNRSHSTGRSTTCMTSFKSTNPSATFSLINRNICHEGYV
# [2] = biological target: T1, Bombesin receptor subtype-3 (Homo sapiens, UniProt P32247)
# T1 sequence (P32247 whole entry): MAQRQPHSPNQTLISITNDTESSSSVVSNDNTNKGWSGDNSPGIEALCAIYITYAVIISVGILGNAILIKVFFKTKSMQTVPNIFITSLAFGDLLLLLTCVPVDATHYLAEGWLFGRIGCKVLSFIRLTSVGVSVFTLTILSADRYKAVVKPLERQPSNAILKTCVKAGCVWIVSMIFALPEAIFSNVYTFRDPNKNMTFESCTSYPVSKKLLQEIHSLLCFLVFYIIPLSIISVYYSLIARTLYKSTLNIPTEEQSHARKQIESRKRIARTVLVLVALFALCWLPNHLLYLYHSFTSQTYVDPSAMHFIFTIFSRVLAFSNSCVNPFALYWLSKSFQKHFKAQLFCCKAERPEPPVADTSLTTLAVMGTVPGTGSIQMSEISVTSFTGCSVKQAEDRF
# [3] = biological target: Gastrin-releasing peptide receptor (Rattus norvegicus, UniProt P52500)
# Gastrin-releasing peptide receptor (Rattus norvegicus, UniProt P52500), sequence (P52500 whole entry N28S): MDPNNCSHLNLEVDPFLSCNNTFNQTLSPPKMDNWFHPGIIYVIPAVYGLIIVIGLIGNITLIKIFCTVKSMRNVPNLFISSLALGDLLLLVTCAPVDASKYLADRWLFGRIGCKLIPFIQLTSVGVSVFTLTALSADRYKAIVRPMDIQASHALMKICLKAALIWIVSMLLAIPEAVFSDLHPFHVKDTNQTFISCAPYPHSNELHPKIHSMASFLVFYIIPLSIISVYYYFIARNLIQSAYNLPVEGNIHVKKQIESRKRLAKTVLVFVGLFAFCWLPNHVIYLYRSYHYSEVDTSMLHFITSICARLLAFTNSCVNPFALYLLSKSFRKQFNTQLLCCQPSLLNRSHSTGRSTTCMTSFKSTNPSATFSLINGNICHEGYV
# Neuromedin-B receptor = biological target: T2, Neuromedin-B receptor (Rattus norvegicus, UniProt P24053)
# T2 sequence (P24053 whole entry): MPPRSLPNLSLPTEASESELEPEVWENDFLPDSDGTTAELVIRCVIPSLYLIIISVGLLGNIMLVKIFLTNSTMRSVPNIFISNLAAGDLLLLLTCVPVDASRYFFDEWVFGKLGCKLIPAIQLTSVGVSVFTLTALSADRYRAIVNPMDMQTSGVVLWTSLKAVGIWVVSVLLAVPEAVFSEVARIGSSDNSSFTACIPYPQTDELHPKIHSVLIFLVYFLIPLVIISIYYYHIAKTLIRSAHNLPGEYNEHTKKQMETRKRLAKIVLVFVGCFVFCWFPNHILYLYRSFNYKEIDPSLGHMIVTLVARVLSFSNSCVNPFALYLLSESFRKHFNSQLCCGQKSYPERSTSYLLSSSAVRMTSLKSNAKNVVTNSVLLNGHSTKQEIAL
Molecule,Ki [1],Ki [2],Ki [3],Ki (Neuromedin-B receptor)
CC(C)[C@@H]1NC(=O)[C@H](CCCCN)NC(=O)[C@@H](Cc2c[nH]c3ccccc23)NC(=O)[C@H](Cc2ccc(O)cc2)NC(=O)[C@H](NC(=O)[C@H](N)Cc2ccc3ccccc3c2)CSSC[C@@H](C(=O)N[C@@H](Cc2ccc3ccccc3c2)C(N)=O)NC1=O [H-Nal-cyclo[DCys-Tyr-DTrp-Lys-Val-Cys]-Nal-NH2] (H-[d2Nal][dC]Y[dW]KVC[2Nal]-NH2; disulfide 2-7),,2.8 µM,> 10 µM,0.22 µM
CSCC[C@H](NC(=O)[C@H](CC(C)C)NC(=O)[C@H](CO)NC(=O)CNC(=O)[C@@H](NC(=O)[C@H](C)NC(=O)[C@H](Cc1c[nH]c2ccccc12)NC(=O)[C@H](CC(C)C)NC(=O)[C@@H]1CCC(=O)N1)C(C)C)C(N)=O [Leu8-phyllolitorin] ([pGlu]LWAVGSLM-NH2),,5.4 µM,0.42 µM,> 10 µM
"CC(C)C[C@@H](CN[C@@H](CC(C)C)C(N)=O)NC(=O)[C@H](Cc1cnc[nH]1)NC(=O)CNC(=O)[C@@H](NC(=O)[C@H](C)NC(=O)[C@H](Cc1c[nH]c2ccccc12)NC(=O)[C@H](CCC(N)=O)NC(=O)[C@H](CC(N)=O)NC(=O)CNC(=O)[C@H](CC(C)C)NC(=O)[C@H](CCCN=C(N)N)NC(=O)[C@H](CCC(N)=O)NC(=O)[C@@H]1CCC(=O)N1)C(C)C [Leu13,Psi(CH2NH),Leu14-BN] ([pGlu]QRLGNQWAVGH-X1)",,> 10 µM,0.43 µM,> 10 µM
CSCC[C@H](NC(=O)[C@H](Cc1ccccc1)NC(=O)[C@H](CO)NC(=O)CNC(=O)[C@@H](NC(=O)[C@H](C)NC(=O)[C@H](Cc1c[nH]c2ccccc12)NC(=O)[C@H](CC(C)C)NC(=O)[C@@H]1CCC(=O)N1)C(C)C)C(N)=O [NSC_5748287],,2.1 µM,0.24 µM,0.047 µM
"CSCC[C@H](NC(=O)[C@@H](Cc1c[nH]c2ccccc12)NC(=O)[C@@H](Cc1c[nH]c2ccccc12)NC(=O)[C@H](Cc1ccccc1)NC(=O)[C@@H](Cc1c[nH]c2ccccc12)NC(=O)[C@H](CCC(N)=O)NC(=O)[C@H](CCC(N)=O)NC(=O)[C@H]1CCCN1)C(N)=O [Substance P(4-11),[Dpro4,Dtrp7,9,10]] (H-[dP]QQ[dW]F[dW][dW]M-NH2)",,2.3 µM,> 10 µM,2.5 µM

# Next, values leading:
Ki [1],Ki [2],Ki [3],Ki (Neuromedin-B receptor),Molecule
0.00026 µM and 0.00024 µM and 0.00019 µM and 0.00011 µM,0.0089 µM,0.00099 µM,0.00036 µM,"CCCC[C@H](NC(=O)[C@H](Cc1ccccc1)NC(=O)[C@H](Cc1c[nH]cn1)NC(=O)CCNC(=O)[C@@H](NC(=O)[C@H](C)NC(=O)[C@H](Cc1c[nH]c2ccccc12)NC(=O)[C@H](CCC(N)=O)NC(=O)[C@H](N)Cc1ccccc1)C(C)C)C(N)=O [DPhe6,BetaAla11,Phe13,Nle14-Bn(6-14)] (H-[dF]QWAV[βAla]HF[Nle]-NH2)"
,> 10 µM,0.02 µM,0.14 µM,CSCCC(NC(=O)C(CC(C)C)NC(=O)C(Cc1cnc[nH]1)NC(=O)CNC(=O)C(NC(=O)C(C)NC(=O)C(Cc1c[nH]c2ccccc12)NC(=O)C(Cc1cnc[nH]1)NC(=O)C(CC(N)=O)NC(=O)CN)C(C)C)C(N)=O (stereo not drawn) [NSC_5486814]
,> 10 µM,11.3 µM,4.1 µM,"CC(C)C[C@H](NC(=O)[C@H](CC(C)C)NC(=O)[C@@H](Cc1c[nH]c2ccccc12)NC(=O)[C@H](Cc1ccccc1)NC(=O)[C@@H](Cc1c[nH]c2ccccc12)NC(=O)[C@H](CCC(N)=O)NC(=O)[C@H](CCC(N)=O)NC(=O)[C@@H]1CCCN1C(=O)[C@H](CCCCN)NC(=O)[C@@H]1CCCN1C(=O)[C@H](N)CCCN=C(N)N)C(N)=O [Substance P,[DArg1,DTrp7,9,Leu11]] (H-[dR]PKPQQ[dW]F[dW]LL-NH2)"
,5.3 µM,0.003 µM,0.21 µM,H-EGGGPQWAVGHFM-NH2 [PG-L]
